Converted amounts (≈) assume the structure as drawn.
Tests used:
[1] = test system: mandiblar molars transplanted into the kidney of female mouse (C57BL/6); experiment: Alveolar bone formation activity, compound-soaked collagen bead in mandiblar molar transplanted into mouse kidney; type: in vivo; settings: for response vs control in vivo at 1000 µg/mL: 504 h, collagen bead dipped in 1 mg/ml solution (1-2 μg compound), molar transplanted into mouse kidney, after 3 weeks, stained area vs negative control (100%); for Alveolar bone formation activity (in words): mouse kidney transplant of molar with compound bead, 3 weeks
Procedure: Each compound of Example 1 was dissolved in a sterile biological saline to obtain a solution having a concentration of 1 mg/ml. Collagen bead (diameter: 1×2 mm, Gibco) used as a bone-grafting material was dipped into each solution at 37° C. for 45 minutes. Each resulting wet bead includes about 1-2 μl of the solution, and therefore 1-2 μg of each compound. Mandiblar molars before tooth-root formation were isolated from mice. The wet bead was inserted in the center of dental pulp of each isolated mandiblar molar, using tweezers. The resulting mandiblar molars were transplanted into the kidney of female mouse (C57BL/6). After 3 weeks, the growing molar teeth were fixed with a formalin solution and then stained with a Morse's solution. The stained sites were visualized under a microscope (Olympus IX71) and then the area was measured with an imageWarp software (London, England). The effects of the compounds on alveolar bone formation were evaluated by comparing with the negative control (100%).

[2] = Cytotoxicity test (MTT); settings: mouse, L929 cells
Procedure: (§1) In order to evaluate the cytotoxicities of the compounds designed in Example 1, L929 cells (RIKEN Cell Bank, Japan) (1×10^4 cells per well) were placed on each well of a 96-well plate and then cultured for 12 hours. The cells were treated with each compound in predetermined concentrations and then cultured for 48 hours. After removing the medium, a MTT (3-(4,5-dimethylthiazol-2-yl)-2,5-diphenyltetrazolium bromide) solution (100 μl per well) was added to the cells, which were then incubated for 4 hours. After removing the supernatant, each well was treated with a DMSO solution (100 μl per well) and then incubated at room temperature for 10 minutes for extraction. An absorbance at 550 nm was measured with an ELISA reader (Bio-Tek instrument). The CC50 (Cytotoxic Concentration 50%) values were determined by comparing with a negative control (no treatment).

[3] = test system: MC3T3-E1 cells; experiment: Alkaline phosphatase (ALP) activity of osteoblasts; type: cell-based; settings: 7 days; for activity at 5 µg/mL: Mus musculus, 168 h, compound 5 μg/ml, relative to negative control (100); for ALP activity (in words): 5 μg/ml
Procedure: After removing the medium, α-MEM supplemented with β-glycerophosphate and ascorbic acid were added thereto as a differentiation-inducing agent for osteoblasts. Each compound of Example 1 was added to the culture medium in the final concentration of 5 μg/ml. The plate containing the cells was cultured for 7 days. 100 μl of a cell lysis buffer (Sigma, Catalog number: MCL1) was added to the cells, which were then incubated at 37° C. for 30 minutes. The resulting mixture (50 μl) was reacted with p-nitrophenyl phosphate as a substrate in a 0.1N glycine-NaOH buffer (pH 9.8), at 37° C. for 30 minutes. Each amount of p-nitrophenol released from the substrate was quantified by measuring an absorbance at 405 nm using an ELISA reader (Bio-Tek instrument). […] The alkaline phosphatase activities were calculated by obtaining relative absorbance differences through comparing with a negative control (no treatment).

[4] = test system: MC3T3-E1 cells; experiment: In-vitro bone nodules of osteoblasts (calcium accumulation); type: cell-based; settings: 27 days; for activity at 5 µg/mL: Mus musculus, 648 h, compound 5 μg/ml, relative to negative control (100); for Calcium accumulation in the cells (in words): 5 μg/ml
Procedure: MC3T3-E1 cells (RIKEN Cell Bank, Japan) (2×10^3 cells per well) as an osteoblast cell line were placed on each well of a 24-well plate and then cultured for 24 hours. The medium was changed with α-MEM supplemented with β-glycerophosphate and ascorbic acid as a differentiation-inducing agent for osteoblasts. Each compound of Example 1 was added to the culture medium in the final concentration of 5 μg/ml. The plate containing the cells was cultured for 27 days while changing the medium every three days or every four days. […] No treatment was made to the negative control. In order to quantify the amount of calcium accumulated in the cells, the cells were washed with a biological saline, and then calcium (Ca) was extracted with a 0.5N HCl solution for 6 hours on an agitator. The extracted solution (100 μl) was reacted with a Calcium Reagent (Sigma, USA) at room temperature for 5 minutes. […] The amount of calcium accumulated in the cells was calculated by obtaining relative absorbance differences through comparing with a negative control (no treatment).

[5] = in vitro; settings: mouse
Procedure: as §1

SMILES	response vs control in vivo at 1000 µg/mL [1]	CC50 at 48 h [2]	activity at 5 µg/mL [3]	activity at 5 µg/mL [4]	CC50 at 48 h [5]	Alveolar bone formation activity (in words) [1]	ALP activity (in words) [3]	Calcium accumulation in the cells (in words) [4]
O=C(O)c1cccc(O)c1O [NP21, 2,3-dihydroxybenzoic acid]	110%	150 µg/mL (≈ 973 µM)	147%	132%				
O=C(O)c1ccc(O)cc1O [NP22, 2,4-dihydroxybenzoic acid]	121%		153%	159%	150 µg/mL (≈ 973 µM)			
O=C(O)c1cc(O)ccc1O [NP23, 2,5-dihydroxybenzoic acid]	119%	200 µg/mL (≈ 1300 µM)	152%	163%				
CCOC(=O)c1ccc(O)c(O)c1 [NP31, ethyl 3,4-dihydroxybenzoate]	150%	100 µg/mL (≈ 549 µM)	200%	180%				
O=C(O)c1cc(O)cc(O)c1 [NP32, 3,5-dihydroxybenzoic acid]	123%	150 µg/mL (≈ 973 µM)	155%	163%				
CCOC(=O)c1ccc(O)cc1O [NP33, ethyl 2,4-dihydroxybenzoate]	300%	100 µg/mL (≈ 549 µM)	430%	420%		most excellent alveolar bone formation activities	most excellent ALP activities	most excellent calcium accumulation in the cells
COC(=O)c1ccc(O)cc1O [NP34, methyl 2,4-dihydroxybenzoate]	130%	150 µg/mL (≈ 892 µM)	149%	158%				
CCOC(=O)c1cc(O)ccc1O [NP35, ethyl 2,5-dihydroxybenzoate]	450%	150 µg/mL (≈ 823 µM)	560%	580%		most excellent alveolar bone formation activities	most excellent ALP activities	most excellent calcium accumulation in the cells
CCOC(=O)c1c(O)cccc1O [NP36, ethyl 2,6-dihydroxybenzoate]	121%	200 µg/mL (≈ 1100 µM)	157%	160%				
CCOC(=O)c1cc(O)cc(O)c1 [NP37, ethyl 3,5-dihydroxybenzoate]	122%	150 µg/mL (≈ 823 µM)	153%	159%				
